Measurements taken from patent publication US20240279174A1, “ANTIBIOTICS COMPRISING LPXH-TARGETING COMPOUNDS AND METHODS OF MAKING AND USING THE SAME” (Duke University, priority 2019, published 2024).
pIC50, pKi: −log10 of the molar value. Converted amounts (≈) assume the structure as drawn. Where two headings read alike, the source gives them in different places.

Experiments:
[1] = test system: E. coli strains with a compromised outer membrane (yhjD*ΔkdtA) or with an efflux pump deletion (ΔtolC); conditions: cited from earlier work
WT K. pneumoniae = conditions: cited from earlier work
[2] = test system: K. pneumoniae (ATCC 10031); test: MIC assay (broth microdilution), K. pneumoniae; format: cell-based; conditions: Klebsiella pneumoniae, ATCC10031
Description: (§1) The MIC assay protocol was adapted from the broth microdilution methods described by the National Committee for Clinical Laboratory Standards using 96-well plates as described previously. In brief, overnight bacterial cultures were diluted to an OD600 of 0.006 in cation-adjusted Mueller-Hinton medium containing 7% DMSO and incubated at 37° C. for 22 h in the presence of varying concentrations of inhibitors. Following overnight incubation, each well is treated with 10 μL of 3-(4,5-dimethylthiazol-2-yl)-2,5-diphenyltetrazolium bromide (MTT, 5 mg/mL) for 3 h. Finally, the culture is solubilized by addition of 2-propanol, and the results are read by taking the difference of the UV reading at both 570 and 690 nm. MIC values were reported as the lowest compound concentration that inhibited bacterial growth. The baseline for inhibited cell growth was determined to be <4× the average control reading due to the baseline optical density of the initial starting bacterial culture.

[3] = target: T1, K. pneumoniae LpxH (KpLpxH) (Klebsiella pneumoniae subsp. pneumoniae (strain ATCC 700721 / MGH 78578), UniProt A6T5R0); test: LpxE-coupled malachite green LpxH activity assay (KpLpxH inhibition); format: biochemical; conditions: for remaining activity at 0.1 µM / inhibition at 0.1 µM: 0.1 μM inhibitor; for remaining activity at 0.1 µM: normalized against KpLpxH activity in 10% DMSO, read-out: Percentage Activity of KpLpxH (vi/v0); for inhibition at 0.1 µM: read-out: Percentage Inhibition of KpLpxH; for pIC50: Table 5, read-out: IC50: Average
Description: Evaluation of LpxH inhibition by analogs: After completing the synthesis of sulfonyl piperazine compounds with various forms of linkers, the KpLpxH inhibition was biochemically characterized by these analogs at 0.1 μM using the nonradioactive, colorimetric malachite green assay that we had previously reported. […] Such an enhanced potency requires the presence of the hydroxamate group, as its substitution with a carboxylate group in compound 7 reduced the compound activity (vi/v0=30±6%).
The LpxE-coupled LpxH activity assay was conducted as described previously using the GB1-K. pneumoniae LpxH-His10 fusion protein. Briefly, two reaction mixtures were prepared. Mixture 1 contains 20 mM Tris-HCl (pH 8.0), 0.5 mg/mL BSA, 0.02% Triton X-100, 1 mM MnCl2, 1 mM DTT, 10% DMSO, and 200 µM substrate (UDP-DAGn), and mixture 2 is comprised of the same buffer, but instead of substrate, contains both LpxH (20 ng/ml) and 2× inhibitor. These mixtures were then pre-incubated at 37° C. for 10 min. To initiate the reaction, an equal volume of the LpxH mixture (mixture 2) was added to the substrate mixture (mixture 1) at 37° C. The final reaction solution contains 100 μM substrate, 10 ng/ml enzyme, and 1× inhibitor. At the desired reaction time points, an aliquot of 20 μL reaction mixture was removed and added to a well in 96-well half-area plate containing 5 mM EDTA (final concentration) to quench the LpxH reaction. Purified Aquifex aeolicus LpxE was then added to a final concentration of 5 μg/mL. The plate was incubated at 37° C. for 30 min followed by addition of formic acid to a final concentration of 3.75 M to quench the LpxE reaction. The malachite green reagent (Sigma Aldrich, catalog MAK307) was diluted 5-fold into the solutions, and the plate was incubated for 30 min at room temperature before the absorbance at 620 nm was measured. All measurements were done in triplicates, and standard error (S.E.) was calculated.

[4] = target: T1, K. pneumoniae LpxH (KpLpxH); conditions: previously reported value for 2; read-out: KI of KpLpxH inhibition (reported value); cited from earlier work
E. coli W3110 = test: MIC assay (broth microdilution), E. coli; format: cell-based; conditions: Escherichia coli, Table 4
Description: as §1

[5] = K. pneumoniae (ATCC 10031), in vitro, read-out: MIC
[6] = Table 4, read-out: MIC - K. pneumoniae (ATCC 10031)

Row | MIC [2, 6] | pIC50 [3] | MIC (E. coli W3110) | Compound | other results
1 | 0.83 mg/L (≈ 1.7 µM) | 6.98 | – | CC(=O)N1CCc2cc(S(=O)(=O)N3CCN(c4cc(Cl)cc(C(F)(F)F)c4)CC3)ccc21 [JH-LPH-33] | MIC [2, 5]: 0.83 mg/L (≈ 1.7 µM); pKi [4]: 8.00; remaining activity at 0.1 µM [3]: 21%; inhibition at 0.1 µM [3]: 79%
2 | 1.33 mg/L (≈ 2.92 µM) | 7.49 | – | CC(=O)N1CCc2cc(S(=O)(=O)N3CCN(c4nccc(C(F)(F)F)n4)CC3)ccc21 [JH-LPH-93] | –
3 | 0.83 mg/L (≈ 1.37 µM) | 8.70 | – | O=C(CCCCNC(=O)N1CCc2cc(S(=O)(=O)N3CCN(c4cc(C(F)(F)F)cc(Cl)n4)CC3)ccc21)NO [JH-LPH-96] | –
4 | 1 mg/L (≈ 1.69 µM) | 9.64 | 16 mg/L (≈ 27 µM) | O=C(CCCCCNC(=O)Nc1ccc(S(=O)(=O)N2CCN(c3cc(C(F)(F)F)cc(Cl)n3)CC2)cc1)NO [JH-LPH-104] | –
5 | 0.3 mg/L (≈ 0.502 µM) | – | 2 mg/L (≈ 3.35 µM) | CN(c1ccccc1C(=O)Nc1ccc(S(=O)(=O)N2CCN(c3cc(Cl)cc(Cl)c3)CC2)cc1)S(C)(=O)=O [JH-LPH-105] | –
6 | – | – | 1.7 mg/L (≈ 2.58 µM) | CN(c1ccccc1C(=O)N1CCc2cc(S(=O)(=O)N3CCN(c4cc(C(F)(F)F)cc(Cl)n4)CC3)ccc21)S(C)(=O)=O [JH-LPH-106] | –
7 | 0.04 mg/L (≈ 0.0633 µM) | – | 1 mg/L (≈ 1.58 µM) | CN(c1ccccc1C(=O)Nc1ccc(S(=O)(=O)N2CCN(c3cc(C(F)(F)F)cc(Cl)n3)CC2)cc1)S(C)(=O)=O [JH-LPH-107] | –

Row | Compound | MIC [2, 6] | pIC50 [3] | MIC (E. coli W3110) | other results
8 | CC(=O)N1CCc2cc(S(=O)(=O)N3CCN(c4cccc(C(F)(F)F)c4)CC3)ccc21 [AZ1, reference compound] | > 64 mg/L | – | – | antibiotic activity [1]: weak antibiotic activity; antibiotic activity (WT K. pneumoniae): weak antibiotic activity; MIC [2, 5]: > 64 mg/L; remaining activity at 0.1 µM [3]: 78%; inhibition at 0.1 µM [3]: 22%
